Measurements as given in patent US9340543B2, “Helquat derivatives, preparation thereof, and use thereof as medicaments” (USTAV ORGANICKE CHEMIE A BIOCHEMIE AKADEMIE VED CR, V.V.I., priority 2013, dated 2016).
Where a name gives a salt, the structure may show the parent alone.

Assays:
[1] = system: CCRF-CEM; assay: CellTiter-Glo luminescent cell viability assay (ATP quantification), CCRF-CEM; type: cell-based; conditions: acute lymphoblastic leukemia cells, 72 h treatment, viable cells by ATP luminescence
Protocol: (§1) Influence of the test compounds on viability (proliferation) of cell lines used was investigated in concentration range 0-100 μmol·l^−1.
Suspension cell line CCRF-CEM is a permanent in vitro culture of acute lymphoblastic leukemia. CCRF-CEM cell line was cultivated in RPMI 1640 medium (Sigma-Aldrich, cat. no. R8758) with addition of 2 mmol·l^−1 glutamine (Invitrogen, cat. no. 35050-038), 10% fetal bovine serum (FBS, Sigma-Aldrich, cat. no. F9665), 100 IU/ml peniciline, 100 μg/ml streptomycine (Sigma-Aldrich, cat. no. P0781). Passaging was performed 2-3× a week. Population doubling time of CCRF-CEM cell line was 20 h under the cultivation conditions used.
(§2) In order to test the sensitivity of the cell lines towards the studied helquats, cytotoxity test for cell viability assessment based on ATP quantification in cell lysates was used (CellTiter-Glo® Luminescent Cell Viability Assay, Promega, cat. no. G7571). In this test, ATP in cell lysates is detected using luciferase reaction. Luminescence intensity correlates with the ATP level and thus with quantity of metabolically active (viable) cells. IC50 value serves as the output, that is the concentration of the test compound which leads to 50% reduction in number of viable cells as compared to control, untreated population. To this end, IC50 value reflects efficiency of the test compound with regard to the given cell line.
(§3) Cells in the exponential growth phase were seeded into a 96-well microtiter plate were plated at 3000 cells per well. Each well contained 90 μl of cell suspension. The next day, 10 μl of 10× concentrated test compound solutions were added. The effect of helquats was investigated in concentration range 1 to 100 μmol·l^−1 (e.g. 1; 2.5; 5; 7.5; 10; 15; 25; 50 and 100 μmol·l^−1). Apart from the section containing the concentration series of the test compound, each well contained 2 control columns, the first with pure medium (so called blank) and the second with cells in medium without the test compounds (control). Into wells containing controls and blanks, volume of solvent (water) equal to the volume of added compound solutions was added. After 72 h of incubation with the test compounds viability was determined according to the manufacturer's instructions. In short: microtiter well plate was left 30 min to reach the room temperature after it has been removed from the incubator. Then, into each well, 100 μl of the prepared detection agent was added. Next, the well plate was shaken for 2 min to complete the full lysis. Next, after the well had been left in the dark for 15 min, the luminescence was measured in each well using luminometer (Tecan Genios, Austria).
(§4) IC50 value represents concentration of the test compound, which leads to 50% reduction of viable cells (inhibition of cell growth) after 72 h of the treatment. Each helquat concentration was tested in triplicates in a IC50 quantification and at least 3 independent IC50 quantification experiments were performed. IC50 values over 100 μmol·l^−1 were obtained by extrapolation of data measured in concentration range 0-100 μmol·l^−1 for the given helquat.

[2] = system: MOLT-4; assay: CellTiter-Glo luminescent cell viability assay (ATP quantification), MOLT-4; type: cell-based; conditions: acute lymfoblastic leukemia cells, 72 h treatment, viable cells by ATP luminescence
Protocol: as §1
(§5) Suspension cell line MOLT-4 is a permanent in vitro culture of acute lymfoblastic leukemia. Linie MOLT-4 cell line was cultivated in RPMI 1640 medium (Sigma-Aldrich, see above) with addition of 2 mmol glutamine (Invitrogen, see above), 10% fetal bovine serum (FBS, Sigma-Aldrich, see above), 100 IU/ml peniciline, 100 μg/ml streptomycine (Sigma-Aldrich, see above). Passaging was performed 2-3× a week. Population doubling time of MOLT-4 cell line was 25 h under the cultivation conditions used.
as §2, §3, §4

[3] = system: HeLa; assay: CellTiter-Glo luminescent cell viability assay (ATP quantification), HeLa; type: cell-based; conditions: cervical cancer cells, 72 h treatment, viable cells by ATP luminescence
Protocol: as §1
Adherent cell line HeLa is a permanent in vitro culture derived from cervical cancer. HeLa cell line was cultivated in RPMI 1640 medium (Dutch modification) (Sigma-Aldrich, cat. no. R7638) with addition of 2 mmol·l^−1 glutamine (Invitrogen, see above), 10% fetal bovine serum (FBS, Sigma-Aldrich, see above), 100 IU/ml peniciline, 100 μg/ml streptomycine (Sigma-Aldrich, see above). Passaging was performed twice a week. After washing of cells with sterile PBS the cells were released by 0.25% trypsin/EDTA (Sigma-Aldrich, cat. no. T4049) at 37° C. for 2 minutes. The trypsin was inactivated by addition of 2 volumes of complete medium, cells were then centrifuged (250×g, 5 min), the cell pellet was resuspended, and transferred in the amount needed into a new cultivation bottle with fresh medium. Population doubling time of […] cell line was 25 h under the cultivation conditions used.
as §2, §3, §4

[4] = system: Hep G2; assay: CellTiter-Glo luminescent cell viability assay (ATP quantification), Hep G2; type: cell-based; conditions: Homo sapiens, HepG2; hepatocellular carcinoma cells, 72 h treatment, viable cells by ATP luminescence
Protocol: as §1
(§6) Adherent cell line Hep G2 is a permanent in vitro culture derived from liver tissue of a patient with hepatocellular carcinoma. Hep G2 cell line was cultivated in DMEM medium (Sigma-Aldrich, cat. no. M4528) with addition of 2 mmol·l^−1 glutamine (Invitrogen, see above), 10% fetal bovine serum (FBS, Sigma-Aldrich, see above), 100 IU/ml peniciline, 100 μg/ml streptomycine (Sigma-Aldrich, see above). Passaging was performed twice a week. After washing of cells with sterile PBS, the cells were released by 0.25% trypsin/EDTA (Sigma-Aldrich, see above) at 37° C. for 2 minutes. The trypsin was inactivated by addition of 2 volumes of complete medium, cells were then centrifuged (250×g, 5 min), resuspended, and transferred in the amount needed into a new cultivation bottle with fresh medium. Population doubling time of Hep G2 cell line was 28 h under the cultivation conditions used.
as §2
as §3, with “In short: microtiter well plate was left 30 min to reach the room temperature after it has been removed from the incubator. Then, into each well, 100 μl of the prepared detection agent was added. Next, the well plate was shaken for 2 min to complete the full lysis.” left out, “Austria). […]” for “Austria).”

[5] = system: LoVo; assay: CellTiter-Glo luminescent cell viability assay (ATP quantification), LoVo; type: cell-based; conditions: Homo sapiens, LoVo; colorectal carcinoma cells, 72 h treatment, viable cells by ATP luminescence; class symbols
Protocol: as §1
as §6, with “LoVo” for “Hep G2”, “from” for “from liver”, “colorectal” for “hepatocellular”, “D8437)” for “M4528)”, “39” for “28”
as §2, §3, §4

[6] = system: HUVEC; assay: CellTiter-Glo luminescent cell viability assay (ATP quantification), HUVEC normal cells; type: cell-based, human; conditions: 72 h treatment
Protocol: as §1
Normal human endothelial cells from umbilical vein are adherent cells cultivated in plastic Petri dishes coated with collagen I. Into the cultivation medium (E-STIM™; BD Biosciences, cat. co. 355054) already containing 2% FBS (fetal bovine serum), hydrocortisone and heparin the following two further ingredients were added: epidermal growth factor (EGF, 5 μg) and mixture of factors facilitating growth of endothelial cells (ECGS, 100 mg). […] The cells were passaged after reaching 90% confluency by dissociation using 0.25% solution of trypsin/EDTA (1 ml; 3 min; 37° C.). After that 5 ml of complete cultivation medium E-STIM™ was added and the cells were centrifuged (180×g, 7 min), the pellet was resuspended, and transferred in the amount needed into a new Petri dish with fresh medium. The cells were used in experiments between the 3rd and the 8th passage after defreezing. Population doubling time of HUVEC cell line was 38 h under the cultivation conditions used.
as §2, §3, §4

[7] = system: NHDF-Ad; assay: CellTiter-Glo luminescent cell viability assay (ATP quantification), NHDF-Ad normal cells; type: cell-based; conditions: normal human dermal fibroblasts, 72 h treatment
Source text: as §1
Normal human dermal fibroblasts were cultivated without antibiotics in basal medium for fibroblasts (ATCC/LGC Standards, cat. no. PCS-201-030) with added “Fibroblast Growth Kit-Low serum” (ATCC/LGC Standards, cat. no. PCS-201-041) containing 2% FBS, L-glutamine, hydrocortisone, ascorbic acid, rh FGF beta, rh insulin. When 90% confluency was reached the fibroblasts were washed with sterile PBS (5 ml) and dissociated by addition of 0.25% solution of trypsin/EDTA (2 ml; 2 min; 37° C.). After that 5 ml of cultivation medium for fibroblasts was added and the cells were centrifuged (180×g, 7 min), the cell pellet was resuspended, and transferred in the amount needed into a new cultivation bottle with fresh medium. The same cell release procedure was applied when the cells were to be used in experiments. The cells were used in experiments between the 3rd and the 15th passage after defreeezing. Population doubling time of NHDF-Ad cell line was 33 h under the cultivation conditions used.
as §2, §3, §4

[8] = system: HL-60; assay: CellTiter-Glo luminescent cell viability assay (ATP quantification), HL-60; type: cell-based; conditions: acute promyelocytic leukemia cells, 72 h treatment, viable cells by ATP luminescence
Protocol: as §1
as §5, with “HL-60” for “MOLT-4”, “promyelocytic” for “lymfoblastic”, “HL-60” for “Linie MOLT-4”, “mmol·l^−1” for “mmol”, “23” for “25”
as §2, §3, §4

## CN(C)c1ccc(/C=C/c2cccc3[n+]2CCCc2ccc4c(c2-3)-c2cccc(/C=C/c3ccc(N(C)C)cc3)[n+]2CCC4)cc1 (racemic) (as salt: methanesulfonate) [(rac)-41, (rac)-4,15-bis((E)-4-(dimethylamino)styryl)-6,7,8,11,12,13-hexahydro-dipyrido[1,2-a:1′,2′-a′]benzo[2,1-c:3,4-c′]bisazepinediium trifluoromethanesulfonate]
other
  melting point: 318 to 322 °C

## Cc1c(C)c2c(c3c1CC[n+]1ccc4ccccc4c1-3)-c1cccc(/C=C/c3cc4c5c(c3)CCCN5CCC4)[n+]1CC2 (racemic) [(rac)-12, (rac)-(E)-11-(2-(1,2,3,5,6,7-hexahydropyrido[3,2,1-ij]yl)vinyl)-6,7-dimethyl-4,5,8,9-tetrahydroisoquinolino[1,2-a]pyrido[1,2-k][2,9]phenanthroline-3,10-diium trifluoromethanesulfonate]
[1]; Homo sapiens, CCRF-CEM
  IC50: 11 to 50 µM
[2]; Homo sapiens, MOLT-4
  IC50: 51 to 150 µM
[3]; Homo sapiens, HeLa
  IC50: 11 to 50 µM
[4]
  IC50: 11 to 50 µM
[5]
  IC50: 51 to 150 µM
[6]; HUVEC, normal human endothelial cells from umbilical vein, viable cells by ATP luminescence, class symbols
  IC50: 51 to 150 µM
[7]; Fibroblast, viable cells by ATP luminescence, class symbols
  IC50: 51 to 150 µM

## C(=C\c1cc[n+]2c(c1)-c1c(ccc3c1-c1c4ccccc4cc[n+]1CCC3)CCC2)/c1cc2c3c(c1)CCCN3CCC2 (racemic) [(rac)-25, (rac)-(E)-19-(2-(1,2,3,5,6,7-hexahydropyrido[3,2,1-ij]quinolin-9-yl)vinyl)-8,9,10,13,14,15-hexahydropyrido[1′″,2′″:1″,2″]azepino[4″,3″:5′,6′]benzo[1′,2′:3,4]azepino[2,1-a]isoquinoline-7,16-diium trifluoromethanesulfonate]
[1]; Homo sapiens, CCRF-CEM
  IC50: 11 to 50 µM
[2]; Homo sapiens, MOLT-4
  IC50: 11 to 50 µM
[3]; Homo sapiens, HeLa
  IC50: 11 to 50 µM
[8]; Homo sapiens, HL-60
  IC50: 11 to 50 µM
[5]
  IC50: 51 to 150 µM
[6]; HUVEC, normal human endothelial cells, numeric bound, values over 100 obtained by extrapolation of data measured at 0-100 μmol·l−1
  IC50: > 150 µM
[7]; Fibroblast, numeric bound, values over 100 obtained by extrapolation of data measured at 0-100 μmol·l−1
  IC50: > 150 µM

## COc1ccc2cc(/C=C/c3cc[n+]4c(c3)-c3c(c(C)c(C)c5c3-c3c6ccccc6cc[n+]3CC5)CC4)ccc2c1 [(P)-7, (P)-(E)-13-(2-(6-methoxynaphthalene-2-yl)vinyl)-6,7-dimethyl-4,5,8,9-tetrahydroiso-quinolino[1,2-a]pyrido[1,2-k][2,9]phenanthroline-3,10-diium trifluoromethanesulfonate]
[1]
  IC50: 11 to 50 µM
[2]
  IC50: 11 to 50 µM
[3]
  IC50: 11 to 50 µM
[8]
  IC50: 11 to 50 µM
[6]; normal human endothelial cells from umbilical vein, viable cells by ATP luminescence, class symbols
  IC50: 51 to 150 µM
[7]; viable cells by ATP luminescence, class symbols
  IC50: 51 to 150 µM
